Measured values published in US20260125400A1, “TYK2 DEGRADERS AND USES THEREOF” (Kymera Therapeutics, Inc., priority 2023, published 2026).

Molecular target: T1, TYK2 (Homo sapiens, UniProt P29597)
T1 construct: Degradation of TYK2 in cells was quantitatively measured using Meso Scale Discovery (MSD) technology; endogenous in cells; host or cells: OCI-LY10
Test: TYK2 MSD degradation in OCI-LY10 cells
Format: cell-based
Details: OCI-LY10 cells, 4 to 24 hours incubation; for DC50: read-out: TYK2 MSD OCI-LY10 Rel-DC50
Summary of the method: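 OCI-LY10 cells were treated with 9-dose 1:3 series (top 1 to 10 μM final) for 4 to 24 hours at 37° C. Lysate TYK2 quantified by MSD sandwich immunoassay; DC50 and Dmax from four-parameter inhibitor vs. response fit.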

T1 sequence (P29597 whole entry): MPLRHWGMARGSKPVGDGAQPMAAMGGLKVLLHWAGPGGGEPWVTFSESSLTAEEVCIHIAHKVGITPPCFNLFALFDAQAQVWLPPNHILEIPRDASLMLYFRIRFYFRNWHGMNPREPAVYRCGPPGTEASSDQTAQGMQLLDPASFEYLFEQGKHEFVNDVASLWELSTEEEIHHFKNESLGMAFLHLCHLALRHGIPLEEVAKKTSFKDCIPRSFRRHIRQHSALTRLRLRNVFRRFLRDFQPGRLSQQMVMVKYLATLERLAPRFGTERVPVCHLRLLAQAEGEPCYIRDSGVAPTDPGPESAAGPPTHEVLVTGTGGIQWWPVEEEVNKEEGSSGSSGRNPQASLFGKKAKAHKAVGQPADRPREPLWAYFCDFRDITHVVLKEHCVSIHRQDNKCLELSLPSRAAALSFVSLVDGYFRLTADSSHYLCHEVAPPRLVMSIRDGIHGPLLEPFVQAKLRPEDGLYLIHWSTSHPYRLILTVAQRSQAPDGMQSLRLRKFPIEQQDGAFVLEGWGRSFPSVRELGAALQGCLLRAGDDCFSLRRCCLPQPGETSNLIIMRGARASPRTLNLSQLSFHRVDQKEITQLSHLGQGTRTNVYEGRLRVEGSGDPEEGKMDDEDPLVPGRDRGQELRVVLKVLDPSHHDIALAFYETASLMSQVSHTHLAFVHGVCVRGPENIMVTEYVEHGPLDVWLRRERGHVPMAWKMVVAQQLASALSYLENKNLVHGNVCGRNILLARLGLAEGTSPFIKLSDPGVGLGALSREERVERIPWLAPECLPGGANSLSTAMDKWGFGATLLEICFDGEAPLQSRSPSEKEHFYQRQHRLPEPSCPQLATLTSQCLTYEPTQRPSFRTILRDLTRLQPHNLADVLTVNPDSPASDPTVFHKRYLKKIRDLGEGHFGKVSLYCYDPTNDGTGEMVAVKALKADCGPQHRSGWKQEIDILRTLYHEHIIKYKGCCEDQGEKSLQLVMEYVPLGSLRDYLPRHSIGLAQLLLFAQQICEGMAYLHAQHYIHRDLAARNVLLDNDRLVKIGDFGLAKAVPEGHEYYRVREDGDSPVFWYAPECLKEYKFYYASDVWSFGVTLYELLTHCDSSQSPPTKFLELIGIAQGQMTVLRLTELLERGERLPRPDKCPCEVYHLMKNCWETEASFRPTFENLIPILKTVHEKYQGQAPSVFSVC

| SMILES | Dmax [%] | DC50 [nM] | TYK2 MSD OCI-LY10 Dmax % |
| --- | --- | --- | --- |
| CNc1cc(N2CCc3c(C#CCN4CCC(N5CCC6(CCN(c7ccc8c(c7)n(C)c(=O)n8C7CCC(=O)NC7=O)CC6)CC5)C(F)(F)C4)cccc32)nn2c(C(=O)N[C@@H]3C[C@@H]3F)cnc12 (stereo partly drawn) [I-486, 6-(4-(3-(4-(9-(1-(2,6-Dioxopiperidin-3-yl)-3-methyl-2-oxo-2,3-dihydro-LH-benzo[d]imidazol-5-yl)-3,9-diazaspiro[5.5]undecan-3-yl)-3,3-difluoropiperidin-1-yl)prop-1-yn-1-yl)indolin-1-yl)-N-((1R,2S)-2-fluorocyclopropyl)-8-(methylamino)imidazo[1,2-b]pyridazine-3-carboxamide] | 75 to 90 | < 10 |  |
| CNc1cc(N2CCc3c(CN4CCC(N5CCC(CC#Cc6cccc7c6n(C)c(=O)n7C6CCC(=O)NC6=O)CC5)C(F)(F)C4)cccc32)nn2c(C(=O)NC3CC3F)cnc12 (stereo not shown) [I-488] |  | 10 to 100 | D (D (<50%)) |
| CNc1cc(N2CCc3c(-c4ccc(CN5CC6(CCN(C(=O)c7ccc(Cl)c(C8CCC(=O)NC8=O)c7)CC6(F)F)C5)cn4)cccc32)nn2c(C(=O)N[C@@H]3C[C@@H]3F)cnc12 (stereo partly shown) [I-502] |  | < 1 | A (A (>90%)) |
| CNc1cc(N2CCc3c(N4CCC(CN5CCC6(CC5)CCN(c5ccc(Cl)c(C7CCC(=O)NC7=O)c5)CC6)CC4)cccc32)nn2c(C(=O)N[C@@H]3C[C@@H]3F)cnc12 (stereo partly shown) [I-513] |  | 10 to 100 | D (D (<50%)) |
| CNc1cc(N2CCc3c(-c4ccc(OCCC5CCN(C(=O)c6ccc(Cl)c(N7CCC(=O)NC7=O)c6)CC5)cn4)cccc32)nn2c(C(=O)N[C@@H]3C[C@@H]3F)cnc12 [I-617] |  | < 10 | C (C (75 to 50%)) |
| CNc1cc(N2CCc3c(-c4ccc(CN5CC6(CCN(C(=O)c7cc(Cl)c(C)c(N8CCC(=O)NC8=O)c7)CC6(F)F)C5)cn4)cccc32)nn2c(C(=O)N[C@@H]3C[C@@H]3F)cnc12 [I-634] |  | < 1 | A (A (>90%)) |
| CNc1cc(N2CCc3c(-c4ccc(CN5CC6(CCN(C(=O)c7ccc(Cl)c(N8CCC(=O)NC8=O)c7)CC6(F)F)C5)cn4)cccc32)nn2c(C(=O)NC3CC(F)(F)C3)cnc12 [I-653] |  | < 10 | B (B (90 to >75%)) |
| CNc1cc(N2CCc3c(-c4ccc(CC5CCC6(CC5)CCN(C(=O)c5ccc(Cl)c(N7CCC(=O)NC7=O)c5)CC6)cn4)cccc32)nn2c(C(=O)N[C@@H]3C[C@@H]3F)cnc12 [I-654] |  | < 10 | B (B (90 to >75%)) |
| CNc1cc(N2CCc3c(-c4ccc(CN5CCC6(CCN(C(=O)c7cc(C)c(Cl)c(N8CCC(=O)NC8=O)c7)CC6)C(F)(F)C5)cn4)cccc32)nn2c(C(=O)N[C@@H]3C[C@@H]3F)cnc12 [I-655] |  | < 10 | B (B (90 to >75%)) |
| CNc1cc(N2CCc3c(-c4ccc(CN5CCC6(CCN(C(=O)c7cc(F)c(Cl)c(N8CCC(=O)NC8=O)c7)CC6)C(F)(F)C5)cn4)cccc32)nn2c(C(=O)N[C@@H]3C[C@@H]3F)cnc12 [I-656] |  | < 1 | B (B (90 to >75%)) |
| CNc1cc(N2CCc3c(-c4ccc(CN5CCC6(CCN(C(=O)c7cc(F)c(C)c(N8CCC(=O)NC8=O)c7)CC6)C(F)(F)C5)cn4)cccc32)nn2c(C(=O)N[C@@H]3C[C@@H]3F)cnc12 [I-657] |  | < 1 | A (A (>90%)) |
| CNc1cc(N2CCc3c(CC4CCN(C5CCC6(CCN(C(=O)c7ccc(Cl)c(N8CCC(=O)NC8=O)c7)CC6)OC5)CC4)cccc32)nn2c(C(=O)N[C@@H]3C[C@@H]3F)cnc12 (stereo partly shown) [I-685] |  | < 10 | C (C (75 to 50%)) |
| CNc1cc(N2CCc3c(CC4CCN(C5CCC6(CC5)CCN(C(=O)c5ccc(Cl)c(N7CCC(=O)NC7=O)c5)CC6)CC4(F)F)cccc32)nn2c(C(=O)N[C@@H]3C[C@@H]3F)cnc12 (stereo partly shown) [I-686] |  | < 10 | B (B (90 to >75%)) |
| CNc1cc(N2CCc3c(CCN4CCC(N5CCC6(CCN(C(=O)c7ccc(Cl)c(N8CCC(=O)NC8=O)c7)CC6)CC5)C(F)(F)C4)cccc32)nn2c(C(=O)NC3CC3F)cnc12 (stereo not shown) [I-687] |  | < 1 | B (B (90 to >75%)) |
| CNc1cc(N2CCc3c(CC4CN(C5CCN(C6CCN(C(=O)c7ccc(Cl)c(N8CCC(=O)NC8=O)c7)CC6)CC5(F)F)C4)cccc32)nn2c(C(=O)N[C@@H]3C[C@@H]3F)cnc12 (stereo partly shown) [I-698] |  | < 1 | B (B (90 to >75%)) |
| CNc1cc(N2CCc3c(C#CCN4CCC(N5CCC6(CCN(C(=O)c7ccc(Cl)c(N8CCC(=O)NC8=O)c7)CC6)CC5)C(F)(F)C4)cccc32)nn2c(C(=O)N[C@@H]3C[C@@H]3F)cnc12 (stereo partly shown) [I-700] |  | < 1 | B (B (90 to >75%)) |
| CNc1cc(N2CCc3c(C#CCN4CCC(N5CC6(CCN(C(=O)c7ccc(Cl)c(N8CCC(=O)NC8=O)c7)CC6)C5)C(F)(F)C4)cccc32)nn2c(C(=O)N[C@@H]3C[C@@H]3F)cnc12 (stereo partly shown) [I-701] |  | < 1 | A (A (>90%)) |
| CNc1cc(N2CCc3c(C#CCN4CCC(N5CCC6(CC5)CN(C(=O)c5ccc(Cl)c(N7CCC(=O)NC7=O)c5)C6)C(F)(F)C4)cccc32)nn2c(C(=O)N[C@@H]3C[C@@H]3F)cnc12 (stereo partly shown) [I-702] |  | < 1 | B (B (90 to >75%)) |

| SMILES | Dmax [%] | DC50 [nM] | TYK2 MSD OCI-LY10 Dmax % |
| --- | --- | --- | --- |
| CNc1cc(N2CCc3c(CN4CCC(N5CCC(N6CCN(C(=O)c7ccc(Cl)c(N8CCC(=O)NC8=O)c7)CC6)CC5)C(F)(F)C4)cccc32)nn2c(C(=O)N[C@@H]3C[C@@H]3F)cnc12 (stereo partly shown) [I-707] |  | < 10 | D (D (<50%)) |
| CNc1cc(N2CCc3c(CC4CCC(N5CCC(N6CCN(C(=O)c7ccc(Cl)c(N8CCC(=O)NC8=O)c7)CC6)C(F)(F)C5)CC4)cccc32)nn2c(C(=O)NC3CC3F)cnc12 (stereo not shown) [I-708] |  | < 1 | D (D (<50%)) |
| CNc1cc(N2CCc3c(-c4cc(CN5CCN(c6cc7c(cc6F)c(N6CCC(=O)NC6=O)nn7C)CC5)ccn4)cccc32)nn2c(C(=O)N[C@@H]3C[C@@H]3F)cnc12 [I-709] |  | < 10 | D (D (<50%)) |
| CNc1cc(N2CCc3c(CN4CCC(N5CC(CN6CCN(C(=O)c7ccc(Cl)c(N8CCC(=O)NC8=O)c7)CC6)C5)C(F)(F)C4)cccc32)nn2c(C(=O)N[C@@H]3C[C@@H]3F)cnc12 (stereo partly shown) [I-710] |  | < 10 | B (B (90 to >75%)) |
| CNc1cc(N2CCc3c(CN4CCC(N5CCC6(CCN(C(=O)c7cc(Cl)c(C)c(N8CCC(=O)NC8=O)c7)CC6)CC5)C(F)(F)C4)cccc32)nn2c(C(=O)N[C@@H]3C[C@@H]3F)cnc12 (stereo partly shown) [I-711] |  | < 10 | B (B (90 to >75%)) |
| CNc1cc(N2CCc3c(CN4CCC(N5CCC6(CCN(C(=O)c7cc(F)c(Cl)c(N8CCC(=O)NC8=O)c7)CC6)CC5)C(F)(F)C4)cccc32)nn2c(C(=O)N[C@@H]3C[C@@H]3F)cnc12 (stereo partly shown) [I-712] |  | < 1 | B (B (90 to >75%)) |
| CNc1cc(N2CCc3c(CN4CCC(N5CCC6(CCN(C(=O)c7cc(C)c(Cl)c(N8CCC(=O)NC8=O)c7)CC6)CC5)C(F)(F)C4)cccc32)nn2c(C(=O)N[C@@H]3C[C@@H]3F)cnc12 (stereo partly shown) [I-713] |  | < 10 | B (B (90 to >75%)) |
| CNc1cc(N2CCc3c(CN4CC[C@@H](N5CCC6(CCN(C(=O)c7ccc(Cl)c(N8CCC(=O)NC8=O)c7)CC6)CC5)C(F)(F)C4)cccc32)nn2c(C(=O)N[C@@H]3C[C@@H]3F)cnc12 [I-714] |  | < 1 | B (B (90 to >75%)) |
| CNc1cc(N2CCc3c(CN4CC[C@H](N5CCC6(CCN(C(=O)c7ccc(Cl)c(N8CCC(=O)NC8=O)c7)CC6)CC5)C(F)(F)C4)cccc32)nn2c(C(=O)N[C@@H]3C[C@@H]3F)cnc12 [I-715] |  | < 1 | B (B (90 to >75%)) |
| CNc1cc(N2CCc3c(CN4CCC(N5CCC(CN6CCN(C(=O)c7ccc(Cl)c(N8CCC(=O)NC8=O)c7)CC6)CC5)C(F)(F)C4)cccc32)nn2c(C(=O)N[C@@H]3C[C@@H]3F)cnc12 (stereo partly shown) [I-716] |  | < 1 | B (B (90 to >75%)) |
| CNc1cc(N2CCc3c(CN4CCC(CCN5CCN(C(=O)c6ccc(Cl)c(N7CCC(=O)NC7=O)c6)CC5)CC4)cccc32)nn2c(C(=O)N[C@@H]3C[C@@H]3F)cnc12 [I-717] |  | < 10 | C (C (75 to 50%)) |
| CNc1cc(N2CCc3c(-c4cc(CN5CCN(c6ccn7c(N8CCC(=O)NC8=O)cnc7c6)CC5)ccn4)cccc32)nn2c(C(=O)N[C@@H]3C[C@@H]3F)cnc12 [I-719] |  | < 10 | C (C (75 to 50%)) |
| CNc1cc(N2CCc3c(-c4cc(CN5CCN(c6noc7cc(N8CCC(=O)NC8=O)ccc67)CC5)ccn4)cccc32)nn2c(C(=O)N[C@@H]3C[C@@H]3F)cnc12 [I-723] |  | > 100 | D (D (<50%)) |
| CNc1cc(N2CCc3c2ccc(F)c3-c2ccc(CN3CCC4(CCN(C(=O)c5cc(C)c(Cl)c(N6CCC(=O)NC6=O)c5)CC4)C(F)(F)C3)cn2)nn2c(C(=O)N[C@@H]3C[C@@H]3F)cnc12 [I-742] |  | 10 to 100 | C (C (75 to 50%)) |
| CNc1cc(N2CCc3c(CCN4CCC(N5CCN(C(=O)c6ccc(Cl)c(N7CCC(=O)NC7=O)c6)CC5)C(F)(F)C4)cccc32)nn2c(C(=O)N[C@@H]3C[C@@H]3F)cnc12 (stereo partly shown) [I-743] |  | < 10 | B (B (90 to >75%)) |
| CNc1cc(N2CCc3c(-c4ccc(CN5CCC6(CCN(C(=O)c7cc(F)c(Cl)c(N8CCC(=O)NC8=O)c7)CC6)C(F)(F)C5)cn4)cc(F)cc32)nn2c(C(=O)N[C@@H]3CC[C@H]3OC)cnc12 [I-744] |  | < 10 | B (B (90 to >75%)) |
| CNc1cc(-c2cn(C3CN(C4CCN(C(=O)c5ccc(Cl)c(N6CCC(=O)NC6=O)c5)CC4)C3)c3ccccc23)nn2c(C(=O)N[C@@H]3C[C@@H]3F)cnc12 [I-745] |  | > 100 | D (D (<50%)) |
